How the values were obtained:
human TPIIle170Thr = target: T1, human TPIIle170Thr (Homo sapiens, UniProt P60174, I171T); experiment: enzyme-coupled activity assay with PEP titration; thermal shift ΔTm […]°C; assay type: biochemical
T1 construct: gene TPI1; 6x-histidine tagged human TPI

human TPIIle170Val = target: T2, human TPIIle170Val (Homo sapiens, UniProt P60174, I171V); experiment: as above; assay type: biochemical
T2 construct: gene TPI1; 6x-histidine tagged human TPI

[1] = target: T3, triosephosphate isomerase (TPI) (Oryctolagus cuniculus, UniProt P00939); experiment: co-crystal structure at […] Å; assay type: binding
T3 construct: gene TPI1; Native rabbit muscle TPI (Sigma); homodimer, 246 of 250 amino acids modelled

[2] = target: T4, human triosephosphate isomerase (TPI) (Homo sapiens, UniProt P60174); experiment: enzyme-coupled activity assay with PEP titration (IC50 […]); thermal shift ΔTm […]°C; assay type: biochemical
T4 construct: gene TPI1; 6x-histidine tagged wild-type human TPI
T4 sequence (P60174 2-249): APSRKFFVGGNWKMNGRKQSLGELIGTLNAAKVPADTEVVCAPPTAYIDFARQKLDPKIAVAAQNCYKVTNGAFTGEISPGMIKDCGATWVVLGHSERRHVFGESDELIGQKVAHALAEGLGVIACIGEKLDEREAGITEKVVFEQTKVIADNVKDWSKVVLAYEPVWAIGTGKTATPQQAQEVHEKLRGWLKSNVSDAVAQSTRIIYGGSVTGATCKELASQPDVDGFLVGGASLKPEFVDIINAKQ

T1 sequence (P60174 2-249 I171T): as the sequence (P60174 2-249) above, with I170T counted along it
T3 sequence (P00939 2-249): as the sequence (P60174 2-249) above, with Q19K, S20N, G26T, A118S counted along it
T2 sequence (P60174 2-249 I171V): as the sequence (P60174 2-249) above, with I170V counted along it

IC50 (human TPIIle170Thr): 1.54 mM
IC50 (human TPIIle170Val): 1.93 mM
Ki [2]: 230 µM
Compound: C=C(OP(=O)(O)O)C(=O)O [PEP, phosphoenolpyruvate]
co-crystal structure at 1.55 Å [1]: The electron density map gave a clearly defined and unambiguous shape for PEP bound to the active sites
